In US20060172941A1, “Anti-angiogenic peptides and methods of use thereof” (priority 2004, published 2006):
Entries after “also recorded” stand apart in the source; their conditions may differ. Where no end group is shown, it is not given here. [ ]: non-standard residue; d: D form.

How the values were obtained:
[1] = system: Bovine Retinal Endothelial Cells (BRE); assay: VEGF-mediated survival/proliferation of bovine retinal endothelial cells (WST1); assay type: cell-based; conditions: VEGF 25 ng/ml, 72 hours; for Inhibition of VEGF-mediated survival/proliferation: FIG. 4 and 5
Protocol: (§1) The anti-angiogenic activities of the peptides were tested by measuring the level of inhibition of VEGF and bFGF mediated survival/proliferation of Bovine Retinal Endothelial Cells (BRE), Human Dermal Microvasculature Endothelial Cells, and Human Umbilical Vein Endothelial Cells, all of which are standard cell lines used to test anti-angiogenic compounds.
Bovine retinal endothelial (BRE) cells were maintained in Cambrex EG2 media. For non-adherent cell assays, on day one cells were starved for either 6 hours or overnight, then trypsinized and plated in 96-well plates in 100 μl of Optimem plus 1% fetal bovine serum (FBS). One hundred μl of Optimem plus 1% FBS was added to the wells containing, where appropriate, VEGF to a final concentration of 25 ng/ml, and the various peptides to final concentrations as described. For adherent cells, cells were plated in 96-well plates in complete media, allowed to adhere overnight, washed in starvation media (Optimem plus 1% FBS) and then starved during the day. At the end of the day, 100 μl of Optimem plus 1% FBS was added to the wells containing, where appropriate, VEGF to a final concentration of 25 ng/ml and the various peptides to final concentrations as described.
(§2) In all cases, after 72 hours incubation, the amount of live cells in each well was measured with the WST1 assay (Roche).

B16-F1 melanoma cells = assay: Subcutaneous B16 melanoma tumor growth in vivo; parameters: species or system mouse
Protocol: Because of the importance of the angiogenic process for tumorigenesis, miniproteins as described herein, were hypothesized to show good anti-tumor activity. The peptides of the invention were tested in an in vivo model of anti-tumor activity. This model compares the growth of subcutaneous B16 melanoma tumor in vivo either untreated or treated with various amount of miniproteins described in this application. This model is widely accepted in the art as a model to test the anti-tumor activity of compounds that inhibit tumor growth because they have anti-angiogenic activity.
Male C57BL/6 mice were obtained with a mean body weight of 20±2 g. Mouse B16-F1 melanoma cells were implanted subcutaneously (5×10^5 cell per animal). Peptides (formulated in water) were administered ip daily at the amount indicated starting the day after cells injection. In general, tumors became palpable around 9 days after injection of cells. Tumor were then measured every 2 days.

[2] = system: VEGF binding to its receptor; assay: Inhibition of binding of radiolabeled VEGF to endothelial cells; conditions: 30 μM; for VEGF binding inhibition: FIG. 7 legend
Protocol: The activity of the peptides SEQ ID NO.: 1 and SEQ ID NO.: 2 in blocking the binding of radiolabeled VEGF to endothelial cells is shown in FIG. 7.
FIG. 7 illustrates the inhibition of VEGF binding to its receptor by two miniproteins wherein a heparin binding domain is linked to an integrin binding domain. […] Both peptides achieved an almost 100% inhibition at a concentration of 30 μM.

[3] = Heparin binding activity, Hi Trap Heparin HP column, NaCl step elution; conditions: for [NaCl] for elution: heparin column; for fraction number: 500 μl fractions of heparin column elution
Text: Liquid chromatography was used to determine the relative levels of heparin binding activity of the individual heparin binding domains and of the anti-angiogenic miniproteins that contains them. In this assay, the strength of the heparin binding activity is proportional to the amount of NaCl that is required to elute the peptide bound to the heparin column. Peptides with low binding activity are eluted with lower NaCl concentration, whereas higher concentrations of NaCl are required for peptides with higher binding activity.
Hi Trap Heparin HP column (1 ml, Amersham Biosciences) was equilibrated with 10 column volumes (CV) of equilibration (EQ) buffer=10 mM NaH2PO4 pH 7. All buffers were loaded onto columns via syringes. 500 μl fractions are collected (flow rate=1 ml/minute). 500 μg of peptide (1 mg/ml, resuspended in EQ buffer) was added to each column and the flow through was collected for analysis. The columns were then washed with 3 CV of EQ buffer. Peptides are then eluted with a step gradient of 500, 625, 750, 875 mM NaCl in EQ buffer, 2 CV per each step. A final step of 3 CV of 1000 mM NaCl in EQ buffer was collected in 500 μl fractions. The A210 nm was measured using EQ and elution buffers as blanks.

[4] = system: L1210 murine leukemia cells; assay: L1210 murine leukemia intravenous model, survival; assay type: in vivo, mouse; conditions: dosed IP, FIG. 15a; for Survival: DBA/2 mice
Protocol: Antitumor activity of test peptides, administered intraperitoneally (IP), were evaluated against L1210 murine leukemia cells implanted intravenously (IV) in DBA/2 mice.
Studies generally consisted of randomly-assigned groups of 8 mice per group, which were inoculated IV with 1×10^5 cells per mouse from an in vivo leukemia cell line. In addition to groups tested with test peptides, studies usually included a vehicle-treated control group and a positive control group treated with an agent known to be active in the L1210 leukemia model. Starting one day after tumor inoculation (inoculation day defined as Day 0), mice were treated IP with either vehicle or test peptides in various schedules. Generally this consisted of treatment every other day for approximately 1 week (e.g., Days 1, 3, 5 and 7). A positive agent (e.g., cyclophosphamide) was usually given as a single IP injection on Day 1. All dosing solutions were prepared on each day of treatment. Survival was monitored daily and body weights were measured twice weekly. Anti-tumor activity was assessed by the increase in lifespan of the treated groups in comparison to the vehicle-treated control group. Studies with the L1210 leukemia model were limited to 30 days.

[5] = system: Human Umbilical Vein Endothelial Cells; assay: bFGF-mediated survival/proliferation of human umbilical vein endothelial cells (WST1); assay type: cell-based; conditions: FIG. 6, 9, 10, 17
Protocol: as §1
Human umbilical cord endothelial (HUVEC) cells were maintained in Cambrex EGM-2MV media. On day one, cells were starved overnight in 1% FBS in M200 media (Cascade Biologicals). The morning after, the media were replaced with serum-free media (control) or media containing 25 ng/ml of human VEGF165 and the various peptides to final concentrations as described.
as §2

[6] = 20 mg/kg daily IP, vs untreated controls, FIG. 12 and 14
[7] = step gradient in 10 mM NaH2PO4 pH 7

## ATSLPPHSSQSP (listed as Homo sapiens) [ST100,038]
[1]; FIG. 4
  Concentration that completely abolished VEGF-induced increase in WST-1 value: above 40 μM
[1]
  Inhibition of VEGF-mediated survival/proliferation: caused the amount of WST-1 to decrease

## ATSLPPHSSQSPGGGPPAARGRRAARGRR (listed as Homo sapiens) [ST100,062]
B16-F1 melanoma cells; 20 mg/kg daily IP, FIG. 12
  P (ANOVA) of tumor growth inhibition: > 0.05
B16-F1 melanoma cells; [6]
  Inhibition of tumor growth: clearly inhibit tumor growth

## PYAGRGDSVVYGLGGGPGAARGRRAARGRR [ST100,033]
[2]
  inhibition of VEGF binding: ~100%
  VEGF binding inhibition: completely abolished VEGF binding

## RAAKKRARAAKKRARAAKKRLGYVVSDGRGDYP (listed as Homo sapiens) [ST100,079]
[3]; [7]
  [NaCl] for elution: 1000 mM

## RKGRRKGRRKGRRKGRRKGKK ([dR][dK]G[dR][dR][dK]G[dR][dR][dK]G[dR][dR][dK]G[dR][dR][dK]G[dK][dK]; listed as Homo sapiens) [ST100,087]
[3]
  heparin binding activity (comparison in words): even greater increase in heparin binding
  fraction number: 35-36
[3]; [7]
  [NaCl] for elution: 1500 mM

## RKKAARARKKAARARKKAARRLGYVVSDGRGDYP (listed as Homo sapiens) [ST100,081]
[3]
  fraction number: 26-27
[3]; [7]
  [NaCl] for elution: 1000 mM

## RKRAARARKRAARARKRAARR (listed as Homo sapiens) [ST100,083]
[3]; [7]
  [NaCl] for elution: 1100 mM

## RLGYVVSDGRGDYPKKKRRGRAARRGRAA [ST100,065, middle rotated replaced version of ST100,061]
[3]
  heparin binding activity (comparison in words): bind less strongly than ST100,082
[3]; [7]
  [NaCl] for elution: 750 mM
[4]
  Survival: statistically significant increases in survival
  mice (cured mice) that survived longer than 30 days: Sixty to eighty

## RRGRAAKKKRRGRAAKKK (listed as Homo sapiens) [ST100,082]
[3]
  fraction number: 26-27
[3]; [7]
  [NaCl] for elution: 1000 mM

## RRGRAAKKKRRGRAAKKKPSQSSHPPLSTA (listed as Homo sapiens) [ST100,072]
[3]
  fraction number: 26-27
[3]; [7]
  [NaCl] for elution: 1000 mM
[5]
  Inhibition of bFGF-mediated survival: more potent in blocking bFGF stimulation

## RRGRAAKKKRRGRAAKKKRLGYVVSDGRGDYP [ST100,074]
[3]
  fraction number: 27-28
[3]; [7]
  [NaCl] for elution: 1000 mM
[5]
  Inhibition of bFGF-mediated survival: the most active in inhibiting bFGF stimulation
[4]
  Survival: statistically significant increases in survival
  mice (cured mice) that survived longer than 30 days: Sixty to eighty

## RRGRAARRGRAAKKKPSQSSHPPLSTA (listed as Homo sapiens) [ST100,068]
[3]; [7]
  [NaCl] for elution: 875 mM
[1]
  Inhibition of VEGF-mediated survival/proliferation: VEGF stimulation was inhibited with increasing doses; also recorded: more potent in blocking VEGF stimulation
B16-F1 melanoma cells; 20 mg/kg and 40 mg/kg daily IP, FIG. 13
  Inhibition of tumor growth: able to inhibit tumor growth

## RRGRAARRGRAARRGRAAKKKPSQSSHPPLSTA (listed as Homo sapiens) [ST100,073]
[3]
  fraction number: 26-27
[3]; [7]
  [NaCl] for elution: 1000 mM
[5]
  Inhibition of bFGF-mediated survival: more potent in blocking bFGF stimulation; also recorded: the most active in inhibiting bFGF stimulation
B16-F1 melanoma cells; [6]
  Inhibition of tumor growth: able to inhibit tumor growth

## RRGRARRGRARRGRARRGKK ([dR][dR]G[dR][dA][dR][dR]G[dR][dA][dR][dR]G[dR][dA][dR][dR]G[dK][dK]; listed as Homo sapiens) [ST100,085]
[3]
  fraction number: 31-32
[3]; [7]
  [NaCl] for elution: 1100 mM

## RRGRRRGRRRGRRRGKK (listed as Homo sapiens) [ST100,089]
[3]
  heparin binding activity (comparison in words): even greater increase in heparin binding
  fraction number: 34-35
[3]; unit given as M
  [NaCl] for elution: 1300 mM

## RRGRRRGRRRGRRRGKKPSQSSHPPLSTA ([dR][dR]G[dR][dR][dR]G[dR][dR][dR]G[dR][dR][dR]G[dK][dK][dP][dS][dQ][dS][dS][dH][dP][dP][dL][dS][dT][dA]; listed as Homo sapiens) [ST100,093]
[5]
  Inhibition of bFGF-mediated survival: more potent than similar peptides with weaker heparin binding domains

## RRQRRRGRRRQRRRGKK (listed as Homo sapiens) [ST100,090]
[3]
  heparin binding activity (comparison in words): even greater increase in heparin binding
  fraction number: 33-34
[3]; [7]
  [NaCl] for elution: 1300 mM

## YDGRGDSVVYGLKKKAARGRRAARGRR [ST100,032]
[2]
  inhibition of VEGF binding: ~100%
  VEGF binding inhibition: completely abolished VEGF binding
